The values below come from article PMC6238727 (2018).

Entries after “also recorded” stand apart in the source; their conditions may differ.

Data set [1] deals with Neutrophil elastase. Nature of the data set: Neutrophil elastase at 30 nM. As to conditions: human, up to 12 min.
In data set [2] the test system is Thrombin. Nature of the data set: Recombinant human Thrombin at 5U/ml.
Data set [3] is described as follows: human tissue homogenate (healthy and fibrotic lung tissue).
In data set [4] the test system is MMP-13. The data set can be described thus: Recombinant human catalytic domain MMP-13 at 30nM.
Data set [5] has as its system MMP-2. The data set can be described thus: Recombinant human catalytic domain MMP-2 at 30nM.
Data set [6] has as its system plasmin. Nature of the data set: plasmin.
The nature of data set [7]: neutrophil lysate.
Data set [8] can be described thus: healthy (homogenised) human lung tissue.
Data set [9] relates to thrombin. The data set can be described thus: thrombin (Sigma Aldrich) (5 U ml^–1) in MMP buffer (10 mM CaCl2, Tris-HCl, NaCl, pH 7.5). As to conditions: human, up to 60 min.
Data set [10] has as its system MMP. The data set can be described thus: incubation with MMP (which MMP is not given). As to conditions: up to 10 min.
Data set [11] can be described thus: lavage fluid collected from the LPS murine model.
Data set [12] in a line: platelet rich plasma (PRP) collected from the LPS murine model.
The subject of data set [13] is MMP-9 + Thrombin. The data set can be described thus: MMP-9 + Thrombin together in MMP buffer. As to conditions: human, up to 60 min.
The subject of data set [14] is MMP-2. Nature of the data set: recombinant MMP enzymes (active domains), 30 nM, in MMP buffer. As to conditions: up to 60 min.
Data set [15] concerns MMP-13. The description is as above. As to conditions: up to 60 min.
The nature of data set [16]: excised human carotid (atherosclerotic) plaque, sliced in half lengthwise, in a well with probe solution. As to conditions: up to 60 min.
Data set [17] relates to Factor Xa. The data set can be described thus: Factor Xa (Sigma Aldrich) (500 nM) in MMP buffer. As to conditions: up to 60 min.
Data set [18] deals with MMP-9. The data set can be described thus: recombinant MMP enzymes (active domains), 30 nM, in MMP buffer. As to conditions: human, up to 60 min.
Data set [19] deals with Plasmin. The data set can be described thus: Plasmin (Sigma Aldrich) (30 nM) in MMP buffer. As to conditions: up to 60 min.

Regarding -G-P-K-G-Ile-K-G-, the cleaved bond entry in data set [1] is on record as “I-K”. Moreover, the not cleaved result in data set [2] is “Thrombin did not cleave any of the sequences”.
With -G-P-K-G-L-K-G-, the values for the not cleaved result in data set [1], in [2] and in data set [7] were “stable to Elastase”, “not cleaved with Thrombin” and “not cleaved with Neutrophil lysate”, respectively. The cleaved bond result is recorded as “G-L” in data set [3], “G-L” in [4], “G-L” in data set [5] and “K-G” in data set [6].
In the case of -P-Cha-G-M-F-G-, the not cleaved entry in [1] was “remained intact”; in [2] it was “Thrombin did not cleave any of the sequences”.
As for -P-Cha-G-M-H-G-, the not cleaved result was “remained intact” in data set [1] and “Thrombin did not cleave any of the sequences” in [2].
For -P-Cha-G-M-K-G- the same measures were “remained intact” and “Thrombin did not cleave any of the sequences”.
For -P-Cha-G-M-K-ßA-G- the same measures were “remained intact” and “Thrombin did not cleave any of the sequences”.
Regarding -P-Cha-G-M-W-G-, the not cleaved result is listed as “remained intact” in data set [1] and “Thrombin did not cleave any of the sequences” in [2].
For -P-Cha-G-M-Y(Me)-G- the same measures were “remained intact” and “Thrombin did not cleave any of the sequences”.
For -P-Cha-G-M-Y-G-, the not cleaved entry in data set [1] is on record as “remained intact”; in [2] it was “Thrombin did not cleave any of the sequences”.
Turning to -P-F-G-Ile-K-ßA-, the cleaved bond result in data set [1] is listed as “I-K”. For the same substance, the not cleaved entry in data set [2] was “Thrombin did not cleave any of the sequences”.
Take -P-F-G-L-K-ßA-: the not cleaved entry in data set [1] is listed as “remained intact”; in data set [2], “Thrombin did not cleave any of the sequences”.
With -P-F-G-M-K-ßA-, the not cleaved result in data set [1] is listed as “remained intact”; in [2], “Thrombin did not cleave any of the sequences”.
With -P-F-G-Nle-K-ßA-, the not cleaved entry in data set [1] is given as “stable to Elastase”; in [2], “not cleaved with Thrombin”; in data set [6], “totally plasmin resistant”; in data set [7], “not cleaved with Neutrophil lysate”. In addition, the cleaved bond entry in [3], in data set [4] and in [5] was “G-Nle” each time.
Consider “PFGNleKA attached to the hydrophilic tail -[PEG2-(D)K]3-NH2”, for which the not cleaved entry in data set [8] is “good solubility and stability as confirmed by MALDI TOF MS and HPLC analysis”.
As for “–NleWP(D)RGWR(D)L– | –PFGNleKβA– | –K-PEG2–”, the not cleaved entry in [9] was “not activated by their target enzymes”.
On to “–NleWPRGWR(D)L– | –PFG(D)NleKβA– | –K-PEG2–”, for which, in data set [10], the not cleaved entry is given as “not activated by their target enzymes”.
Regarding “–NleWPRGWR(D)L– | –PFGNleKβA– | –K-PEG2–”, the not cleaved result in data set [11] is “not cleaved by murine proteolytic (MMP and Thrombin) enzymes”; in data set [12], “not cleaved by murine proteolytic (MMP and Thrombin) enzymes”; in data set [17] it was “completely plasmin and Factor Xa resistant”; in data set [19] it was “completely plasmin and Factor Xa resistant”. Besides, the cleaved bond result is reported as “Arg-Gly; also recorded: Gly-Nle” in data set [13]; “Gly-Nle” in data set [14]; “Gly-Nle” in [15]; “Arg-Gly; also recorded: Gly-Nle” in data set [16]; “Gly-Nle” in data set [18]; “Arg-Gly” in [9].
